Test results as given in publication PMC9300616, “Grape seed proanthocyanidin extract inhibits DNA and protein damage and labile iron, enzyme, and cancer cell activities” (Scientific Reports, 2022).

Key:
[1] = system: ferritin; assay: Labile iron inhibition assay (superoxide-dependent iron release from ferritin); assay type: biochemical; details: for Labile Iron IC50: inhibition of iron release from ferritin, mean ± SD of three experiments
Method: The mixture was illuminated using a fluorescent lamp for 90 min at 25 °C. The labile iron content was measured as described by Ibrahim et al.[22].

[2] = ABTS free radical-scavenging assay; assay type: biochemical; details: for ABTS IC50: concentration that scavenges free radicals by 50%, mean ± SD of three experiments
Method: Determination was conducted based on the method reported by Platat et al.[62]. The results were expressed as the percentage of ABTS^· radical inhibition calculated using Eq. (1) as described above.

[3] = biological target: T1, Porcine α-amylase (Sus scrofa, UniProt P00690); assay: Porcine α-amylase inhibition assay; assay type: biochemical; details: mean ± SD of three experiments
T1 sequence (P00690 16-511): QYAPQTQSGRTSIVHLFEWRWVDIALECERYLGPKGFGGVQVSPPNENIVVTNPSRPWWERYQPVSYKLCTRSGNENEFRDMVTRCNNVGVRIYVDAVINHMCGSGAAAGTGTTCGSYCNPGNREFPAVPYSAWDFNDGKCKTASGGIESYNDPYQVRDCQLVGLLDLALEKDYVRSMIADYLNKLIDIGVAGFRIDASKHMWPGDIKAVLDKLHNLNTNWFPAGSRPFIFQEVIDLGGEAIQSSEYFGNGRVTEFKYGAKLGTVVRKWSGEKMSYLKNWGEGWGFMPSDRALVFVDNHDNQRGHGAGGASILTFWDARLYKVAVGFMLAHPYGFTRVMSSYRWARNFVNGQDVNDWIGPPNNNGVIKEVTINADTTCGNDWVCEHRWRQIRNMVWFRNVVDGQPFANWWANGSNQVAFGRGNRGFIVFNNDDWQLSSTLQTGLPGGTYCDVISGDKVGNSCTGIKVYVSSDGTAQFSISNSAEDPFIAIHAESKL
Method: Inhibition of porcine α-amylase activity was described by Habib et al.[17]. […] For 10 min, the mixture was incubated at 25 °C, and then 50 µL 1% starch solution in 20 mM sodium phosphate buffer at pH 6.9 with 6 mM NaCl was added. The mixture was incubated at 25 °C, followed by addition of a color reagent (1 mL dinitrosalicylic acid). To stop the reaction, the mixture was kept for 10 min in a water bath at 100 °C and then cooled to 25 °C. 1 mL of deionized water was added, and the absorbance was read at 540 nm using a 96-well microplate reader. Inhibition of porcine α-amylase was estimated using Eq. (1) as described above.

[4] = system: pBR322 plasmid DNA; assay: DNA damage by free radicals (H2O2 + UV), agarose gel; assay type: biochemical; details: for supercoiled (SC) form of pBR322 DNA: H2O2 + UV; for DNA damage inhibition IC50: pBR322 DNA + H2O2 + UV, mean ± SD of three experiments
Method: The assay was performed using the method described by Habib et al.[17]. Briefly, 6 μL of 30% H2O2 was added to an Eppendorf tube with a volume of 20 μL containing 6 μL of PBS buffer, 0.2 μg of pBR322 DNA in 2 μL of 50 mM PBS (pH 7.4), and 4 μL of samples. The reactions were initiated by UV irradiation and sustained for 5 min on the surface of a UV transilluminator TFM-26 (UVP, Upland, CA, USA), with an intensity of […] at 312 nm at room temperature. At the end of the reaction, the samples were run on 0.8% agarose. […] Vitamin C and Rutin were used as positive controls.

[5] = system: Bovine Serum Albumin (BSA); assay: Protein oxidation induced by AAPH, SDS-PAGE; details: for Fragmentation of BSA reduced by: AAPH 30 min
Method: Alkylperoxyl radical-induced oxidation of Bovine Serum Albumin (BSA) was performed as described by Habib et al.[17]. In brief, BSA (0.5 mg mL^−1) was incubated with AAPH (20 mM) in the presence or absence of different extracts in a shaking water bath at 37 °C for 30 min. A protein sample without AAPH was used as control. After treatment, protein samples were mixed with loading buffer and heated at 100 °C for 5 min. An aliquot of each sample was loaded and separated using 10% SDS-PAGE under reducing conditions. The free stained gels were imaged using a ChemiDoc MV gel documentation system (Bio-Rad, Hercules, CA, USA). To determine the amount of protein damage, band intensity was determined using the Image Lab 4.1 software (version 6.1.0 build 7) (Bio-Rad, Hercules, CA, USA). The optical density of each band was determined and standardized for the control group.

[6] = biological target: mushroom tyrosinase; assay: Tyrosinase inhibition assay; assay type: biochemical; details: mean ± SD of three experiments
Method: Tyrosinase inhibitory activity was measured as described by Habib et al.[17]. […] After 10 min of incubation at 37 °C, 1 mL of mushroom tyrosinase (50 units/mL, dissolved in 0.2 M phosphate buffer, pH 6.8), was added to the mixture. The absorbance was recorded after 10 min at 475 nm. A 50% ethanol solution was used as a blank, and 1 mL of deionized water was used as the control. % Tyrosinase inhibitory activity was calculated according to Eq. (1) as described above.

[7] = DPPH free radical-scavenging assay; assay type: biochemical; details: concentration that scavenges free radicals by 50%; mean ± SD of three experiments
Method: The estimation was based on the method reported by Habib et al.[61]. The results were expressed as the percentage inhibition of the DPPH^· radical. The percentage of inhibition of DPPH^· radical was calculated using the following equation:1 %ofDPPH^·inhibition=Abscontrol-Abssample/Abscontrol×100
where Abs control is the absorbance of DPPH^· solution without the tested sample.

O=C(O)c1cc(O)c(O)c(O)c1 [Gallic acid]
percentage inhibition of iron release from ferritin ([1]; at 10 μg): 50.68 ± 0.18%
percentage inhibition of iron release from ferritin ([1]; at 50 μg): 59.22 ± 0.81%
percentage inhibition of iron release from ferritin ([1]; at 100 μg): 68.55 ± 0.38%
Labile Iron IC50 [1]: 4.86 ± 0.23 µg/mL

C[C@@H]1O[C@@H](OC[C@H]2O[C@@H](Oc3c(-c4ccc(O)c(O)c4)oc4cc(O)cc(O)c4c3=O)[C@H](O)[C@@H](O)[C@@H]2O)[C@H](O)[C@H](O)[C@H]1O [Rutin]
ABTS scavenging ([2]; at 0.1 mg/mL): 48.10 ± 0.07%
ABTS scavenging ([2]; at 5 mg/mL): 90.13 ± 0.04%
ABTS IC50 [2]: 6.31 ± 1.00 µg/mL
IC50 [3]: 130 µM
percentage inhibition of iron release from ferritin ([1]; at 10 μg): 85.32 ± 0.56%
percentage inhibition of iron release from ferritin ([1]; at 50 μg): 90.30 ± 0.01%
percentage inhibition of iron release from ferritin ([1]; at 100 μg): 96.65 ± 0.01%
Labile Iron IC50 [1]: 0.08 ± 0.14 µg/mL
supercoiled (SC) form of pBR322 DNA ([4]; at 0.1 mg/mL): 13.50 ± 0.52%
supercoiled (SC) form of pBR322 DNA ([4]; at 5 mg/mL): 66.50 ± 0.57%
DNA damage inhibition IC50 [4]: 2.45 ± 0.13 µg/mL
Fragmentation of BSA reduced by ([5]; at 0.1 mg/mL): 94.12 ± 0.20%
Fragmentation of BSA reduced by ([5]; at 5 mg/mL): 99.10 ± 0.24%
BSA damage inhibition IC50 ([5]; BSA + AAPH, mean ± SD of three experiments): 4.42 ± 0.24 µg/mL
Tyrosinase IC50 [6]: 72.08 ± 0.54 µg/mL

Cc1c(C)c2c(c(C)c1O)CCC(C)(C(=O)O)O2 (centres unmarked) [Trolox]
percentage inhibition of iron release from ferritin ([1]; at 10 μg): 39.33 ± 0.54%
percentage inhibition of iron release from ferritin ([1]; at 50 μg): 84.79 ± 3.00%
percentage inhibition of iron release from ferritin ([1]; at 100 μg): 87.87 ± 1.87%
Labile Iron IC50 [1]: 12.57 ± 0.64 µg/mL

O=C1O[C@H]([C@@H](O)CO)C(O)=C1O [VC, vitamin C]
ABTS scavenging ([2]; at 0.1 mg/mL): 88.29 ± 0.22%
ABTS scavenging ([2]; at 5 mg/mL): 92.69 ± 0.32%
ABTS IC50 [2]: 0.68 ± 0.12 µg/mL
Porcine α-amylase IC50 [3]: 87.24 ± 0.71 µg/mL
supercoiled (SC) form of pBR322 DNA ([4]; at 0.1 mg/mL): 11.50 ± 0.63%
supercoiled (SC) form of pBR322 DNA ([4]; at 5 mg/mL): 19.10 ± 0.91%
DNA damage inhibition IC50 [4]: 42.03 ± 1.06 µg/mL
Tyrosinase IC50 [6]: 42.74 ± 0.23 µg/mL
DPPH IC50 [7]: 880 ± 0.52 µg/mL
